Columns and labels:
Assay in all cases: mobility shift assay
Format in all cases: biochemical
MST 1 = target: T1, MST 1 (Homo sapiens, UniProt Q13043)
T1 construct: purchased Carna Biosciences

KIT(V654A) = target: T2, KIT(V654A) (Homo sapiens, UniProt P10721, V654A)
T2 construct: purchased Carna Biosciences

MELK = target: T3, MELK (Homo sapiens, UniProt Q14680)
T3 construct: purchased Carna Biosciences

PKACβ = target: T4, PKACβ (Homo sapiens, UniProt P22694)
T4 construct: purchased Carna Biosciences

ABL(T315I) = target: T5, ABL(T315I) (Homo sapiens, UniProt P00519, T315I)
T5 construct: purchased Carna Biosciences

RAF1_Cascade = target: T6, RAF1_Cascade (Homo sapiens, UniProt P04049)
T6 construct: purchased Carna Biosciences

CHK2 = target: T7, CHK2 (Homo sapiens, UniProt O96017)
T7 construct: purchased Carna Biosciences

RET(G691S) = target: T8, RET(G691S) (Homo sapiens, UniProt P07949, G691S)
T8 construct: purchased Carna Biosciences

SLK = target: T9, SLK (Homo sapiens, UniProt Q9H2G2)
T9 construct: purchased Carna Biosciences

ABL = target: T10, ABL (Homo sapiens, UniProt P00519)
T10 construct: purchased Carna Biosciences

MSK1 = target: T11, MSK1 (Homo sapiens, UniProt O75582)
T11 construct: purchased Carna Biosciences

FGFR1(V561M) = target: T12, FGFR1(V561M) (Homo sapiens, UniProt P11362, V561M)
T12 construct: purchased Carna Biosciences

MNK2 = target: T13, MNK2 (Homo sapiens, UniProt Q9HBH9)
T13 construct: purchased Carna Biosciences

Erk1 = target: T14, Erk1 (Homo sapiens, UniProt P27361)
T14 construct: purchased Carna Biosciences

FLT4 = target: T15, FLT4 (Homo sapiens, UniProt P35916)
T15 construct: purchased Carna Biosciences

MNK1 = target: T16, MNK1 (Homo sapiens, UniProt Q9BUB5)
T16 construct: purchased Carna Biosciences

PKD1 = target: T17, PKD1 (Homo sapiens, UniProt Q15139)
T17 construct: purchased Carna Biosciences

AKT2 = target: T18, AKT2 (Homo sapiens, UniProt P31751)
T18 construct: purchased Carna Biosciences

PAK1 = target: T19, PAK1 (Homo sapiens, UniProt Q13153)
T19 construct: purchased Carna Biosciences

SPHK2 = target: T20, SPHK2 (Homo sapiens, UniProt Q9NRA0)
T20 construct: purchased Carna Biosciences

IGF1R = target: T21, IGF1R (Homo sapiens, UniProt P08069)
T21 construct: purchased Carna Biosciences

BMX = target: T22, BMX (Homo sapiens, UniProt P51813)
T22 construct: purchased Carna Biosciences

MET(D1228H) = target: T23, MET(D1228H) (Homo sapiens, UniProt P08581, D1228H)
T23 construct: purchased Carna Biosciences

MET = target: T24, MET (Homo sapiens, UniProt P08581)
T24 construct: purchased Carna Biosciences

MET(M125DT) = target: T25, MET(M125DT) (Homo sapiens, UniProt P08581, M1250T)
T25 construct: purchased Carna Biosciences

TYRO3 = target: T26, TYRO3 (Homo sapiens, UniProt Q06418)
T26 construct: purchased Carna Biosciences

WNK3 = target: T27, WNK3 (Homo sapiens, UniProt Q9BYP7)
T27 construct: purchased Carna Biosciences

LYNb = target: T28, LYNb (Homo sapiens, UniProt P07948)
T28 construct: purchased Carna Biosciences

CKIα = target: T29, CKIα (Homo sapiens, UniProt P48729)
T29 construct: purchased Carna Biosciences

BRK = target: T30, BRK (Homo sapiens, UniProt Q13882)
T30 construct: purchased Carna Biosciences

QIK = target: T31, QIK (Homo sapiens, UniProt Q9H0K1)
T31 construct: purchased Carna Biosciences

PRKX = target: T32, PRKX (Homo sapiens, UniProt P51817)
T32 construct: purchased Carna Biosciences

TSSK3 = target: T33, TSSK3 (Homo sapiens, UniProt Q96PN8)
T33 construct: purchased Carna Biosciences

Nuak2 = target: T34, Nuak2 (Homo sapiens, UniProt Q9H093)
T34 construct: purchased Carna Biosciences

CK2α1/β = target: T35, CK2α1/β (Homo sapiens, UniProt P68400)
T35 construct: purchased Carna Biosciences

ITK = target: T36, ITK (Homo sapiens, UniProt Q08881)
T36 construct: purchased Carna Biosciences

PGK = target: T37, PGK (Homo sapiens, UniProt Q13976)
T37 construct: purchased Carna Biosciences

MUSK = target: T38, MUSK (Homo sapiens, UniProt O15146)
T38 construct: purchased Carna Biosciences

PYK2 = target: T39, PYK2 (Homo sapiens, UniProt Q14289)
T39 construct: purchased Carna Biosciences

HPK1 = target: T40, HPK1 (Homo sapiens, UniProt Q86Z02)
T40 construct: purchased Carna Biosciences

FAK = target: T41, FAK (Homo sapiens, UniProt Q05397)
T41 construct: purchased Carna Biosciences

CDK5/p25 = target: T42, CDK5/p25 (Homo sapiens, UniProt Q00535)
T42 construct: purchased Carna Biosciences

T1 sequence (Q13043 whole entry): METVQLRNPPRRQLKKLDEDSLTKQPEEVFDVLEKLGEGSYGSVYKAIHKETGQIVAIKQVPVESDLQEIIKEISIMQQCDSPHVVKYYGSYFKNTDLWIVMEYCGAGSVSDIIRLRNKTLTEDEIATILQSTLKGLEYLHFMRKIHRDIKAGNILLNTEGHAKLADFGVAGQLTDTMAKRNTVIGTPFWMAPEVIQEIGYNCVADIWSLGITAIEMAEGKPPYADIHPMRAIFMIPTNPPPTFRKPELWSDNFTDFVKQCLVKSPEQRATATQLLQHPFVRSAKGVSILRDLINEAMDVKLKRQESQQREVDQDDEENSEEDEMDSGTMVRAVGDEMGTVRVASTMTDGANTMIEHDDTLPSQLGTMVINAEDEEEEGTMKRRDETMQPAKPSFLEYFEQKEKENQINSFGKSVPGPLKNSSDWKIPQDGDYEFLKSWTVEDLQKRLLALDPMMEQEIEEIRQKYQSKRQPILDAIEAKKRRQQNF
T36 sequence (Q08881 whole entry): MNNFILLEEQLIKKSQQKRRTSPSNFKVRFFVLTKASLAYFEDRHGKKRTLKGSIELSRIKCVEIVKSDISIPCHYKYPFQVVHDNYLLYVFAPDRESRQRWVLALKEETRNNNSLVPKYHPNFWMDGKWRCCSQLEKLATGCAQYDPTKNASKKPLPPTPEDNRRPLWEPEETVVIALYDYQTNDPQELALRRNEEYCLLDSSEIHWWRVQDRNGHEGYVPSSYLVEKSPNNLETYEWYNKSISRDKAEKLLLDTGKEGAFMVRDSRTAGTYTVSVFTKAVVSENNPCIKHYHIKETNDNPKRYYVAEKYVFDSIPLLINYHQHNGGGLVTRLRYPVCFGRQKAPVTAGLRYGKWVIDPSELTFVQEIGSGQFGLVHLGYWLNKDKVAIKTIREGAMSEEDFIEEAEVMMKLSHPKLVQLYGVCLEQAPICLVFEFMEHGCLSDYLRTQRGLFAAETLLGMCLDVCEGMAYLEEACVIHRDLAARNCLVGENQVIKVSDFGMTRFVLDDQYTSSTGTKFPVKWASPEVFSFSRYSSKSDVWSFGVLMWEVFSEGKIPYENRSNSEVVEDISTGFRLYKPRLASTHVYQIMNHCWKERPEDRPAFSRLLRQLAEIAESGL
T25 sequence (P08581 956-1390 M1250T limits assumed): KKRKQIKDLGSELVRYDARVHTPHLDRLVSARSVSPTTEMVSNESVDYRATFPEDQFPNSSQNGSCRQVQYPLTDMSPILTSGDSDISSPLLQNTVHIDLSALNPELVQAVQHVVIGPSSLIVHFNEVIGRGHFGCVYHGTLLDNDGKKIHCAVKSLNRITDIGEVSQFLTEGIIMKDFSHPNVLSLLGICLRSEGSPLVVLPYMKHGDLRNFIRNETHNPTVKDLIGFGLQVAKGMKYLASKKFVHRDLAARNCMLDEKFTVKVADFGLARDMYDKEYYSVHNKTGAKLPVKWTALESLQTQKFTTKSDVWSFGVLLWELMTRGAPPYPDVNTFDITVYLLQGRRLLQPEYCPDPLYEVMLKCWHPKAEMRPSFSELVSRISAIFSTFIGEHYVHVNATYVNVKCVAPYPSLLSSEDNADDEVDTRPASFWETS
T7 sequence (O96017 whole entry): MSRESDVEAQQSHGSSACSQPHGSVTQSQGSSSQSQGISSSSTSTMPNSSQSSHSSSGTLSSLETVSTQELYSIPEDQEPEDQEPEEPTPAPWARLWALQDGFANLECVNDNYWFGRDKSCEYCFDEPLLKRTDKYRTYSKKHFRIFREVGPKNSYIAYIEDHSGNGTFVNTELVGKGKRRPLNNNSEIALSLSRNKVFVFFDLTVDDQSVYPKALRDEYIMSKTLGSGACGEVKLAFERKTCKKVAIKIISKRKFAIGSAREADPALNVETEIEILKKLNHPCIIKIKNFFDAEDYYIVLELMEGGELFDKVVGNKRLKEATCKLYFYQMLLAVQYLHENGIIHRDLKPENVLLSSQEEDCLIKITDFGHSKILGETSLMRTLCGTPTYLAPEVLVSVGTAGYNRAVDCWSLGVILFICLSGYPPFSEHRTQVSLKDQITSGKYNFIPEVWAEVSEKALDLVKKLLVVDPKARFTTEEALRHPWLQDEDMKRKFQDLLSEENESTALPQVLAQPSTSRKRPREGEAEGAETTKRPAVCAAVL
T11 sequence (O75582 whole entry): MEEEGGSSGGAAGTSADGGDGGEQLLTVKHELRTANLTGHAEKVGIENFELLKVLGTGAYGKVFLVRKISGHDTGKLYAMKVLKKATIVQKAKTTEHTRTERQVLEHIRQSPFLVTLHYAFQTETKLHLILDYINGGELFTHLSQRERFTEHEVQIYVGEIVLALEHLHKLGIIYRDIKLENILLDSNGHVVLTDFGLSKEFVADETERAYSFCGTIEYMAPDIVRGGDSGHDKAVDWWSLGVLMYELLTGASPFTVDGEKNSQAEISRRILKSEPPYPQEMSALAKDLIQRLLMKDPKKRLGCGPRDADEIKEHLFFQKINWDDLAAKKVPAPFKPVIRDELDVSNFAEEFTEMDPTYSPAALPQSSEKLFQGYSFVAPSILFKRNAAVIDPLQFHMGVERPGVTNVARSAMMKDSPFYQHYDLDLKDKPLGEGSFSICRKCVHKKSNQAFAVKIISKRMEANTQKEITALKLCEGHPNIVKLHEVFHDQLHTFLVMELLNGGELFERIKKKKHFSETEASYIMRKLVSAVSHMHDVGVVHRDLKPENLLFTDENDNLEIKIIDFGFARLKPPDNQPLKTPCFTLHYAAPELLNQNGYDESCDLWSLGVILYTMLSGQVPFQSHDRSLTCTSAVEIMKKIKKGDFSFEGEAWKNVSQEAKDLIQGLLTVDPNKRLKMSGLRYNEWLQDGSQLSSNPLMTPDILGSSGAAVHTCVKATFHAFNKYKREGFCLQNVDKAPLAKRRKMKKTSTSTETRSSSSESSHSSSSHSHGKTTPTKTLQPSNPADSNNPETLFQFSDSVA
T27 sequence (Q9BYP7 whole entry): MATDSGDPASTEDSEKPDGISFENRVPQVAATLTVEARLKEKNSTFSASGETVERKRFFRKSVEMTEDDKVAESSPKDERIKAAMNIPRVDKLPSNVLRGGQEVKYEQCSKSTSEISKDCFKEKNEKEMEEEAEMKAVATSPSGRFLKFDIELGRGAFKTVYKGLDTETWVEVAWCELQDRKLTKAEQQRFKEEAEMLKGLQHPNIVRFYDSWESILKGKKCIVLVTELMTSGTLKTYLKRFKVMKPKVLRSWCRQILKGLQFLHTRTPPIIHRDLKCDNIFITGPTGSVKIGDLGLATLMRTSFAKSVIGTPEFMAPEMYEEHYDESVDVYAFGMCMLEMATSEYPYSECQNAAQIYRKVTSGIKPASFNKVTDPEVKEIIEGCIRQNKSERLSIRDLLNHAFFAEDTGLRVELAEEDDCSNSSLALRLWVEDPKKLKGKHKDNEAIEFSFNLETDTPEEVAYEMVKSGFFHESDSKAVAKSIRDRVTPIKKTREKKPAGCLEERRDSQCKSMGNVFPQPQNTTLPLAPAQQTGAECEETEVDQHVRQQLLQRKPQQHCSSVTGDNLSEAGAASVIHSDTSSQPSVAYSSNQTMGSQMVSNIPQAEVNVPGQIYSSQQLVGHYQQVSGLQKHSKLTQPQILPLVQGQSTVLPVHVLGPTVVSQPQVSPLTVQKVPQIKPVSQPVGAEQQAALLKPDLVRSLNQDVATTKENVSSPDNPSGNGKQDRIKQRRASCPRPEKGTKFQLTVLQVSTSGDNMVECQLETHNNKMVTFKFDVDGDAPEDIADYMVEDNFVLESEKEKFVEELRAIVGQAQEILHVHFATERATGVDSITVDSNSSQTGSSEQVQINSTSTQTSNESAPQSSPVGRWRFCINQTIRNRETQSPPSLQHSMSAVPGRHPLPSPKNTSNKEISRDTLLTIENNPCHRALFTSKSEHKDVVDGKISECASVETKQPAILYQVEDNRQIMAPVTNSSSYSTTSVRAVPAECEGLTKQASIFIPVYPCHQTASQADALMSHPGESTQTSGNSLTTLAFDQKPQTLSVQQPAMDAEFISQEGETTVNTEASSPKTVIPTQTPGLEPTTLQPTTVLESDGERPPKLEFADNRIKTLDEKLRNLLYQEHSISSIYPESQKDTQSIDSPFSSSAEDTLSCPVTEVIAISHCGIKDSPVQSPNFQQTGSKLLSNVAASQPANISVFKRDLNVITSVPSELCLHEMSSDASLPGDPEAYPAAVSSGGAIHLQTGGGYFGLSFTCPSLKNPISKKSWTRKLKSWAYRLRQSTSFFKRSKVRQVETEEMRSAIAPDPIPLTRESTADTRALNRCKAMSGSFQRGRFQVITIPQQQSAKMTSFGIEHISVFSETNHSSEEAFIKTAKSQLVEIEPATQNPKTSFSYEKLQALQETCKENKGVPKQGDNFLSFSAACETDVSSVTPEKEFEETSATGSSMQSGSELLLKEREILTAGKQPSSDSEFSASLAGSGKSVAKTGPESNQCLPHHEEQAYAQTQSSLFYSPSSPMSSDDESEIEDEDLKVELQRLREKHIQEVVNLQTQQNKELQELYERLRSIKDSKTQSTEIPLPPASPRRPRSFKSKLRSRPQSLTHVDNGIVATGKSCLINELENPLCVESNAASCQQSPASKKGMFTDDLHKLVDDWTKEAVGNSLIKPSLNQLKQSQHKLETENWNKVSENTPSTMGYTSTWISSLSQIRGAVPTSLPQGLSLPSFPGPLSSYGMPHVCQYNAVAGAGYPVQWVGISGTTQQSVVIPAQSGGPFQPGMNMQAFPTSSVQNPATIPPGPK
T32 sequence (P51817 whole entry): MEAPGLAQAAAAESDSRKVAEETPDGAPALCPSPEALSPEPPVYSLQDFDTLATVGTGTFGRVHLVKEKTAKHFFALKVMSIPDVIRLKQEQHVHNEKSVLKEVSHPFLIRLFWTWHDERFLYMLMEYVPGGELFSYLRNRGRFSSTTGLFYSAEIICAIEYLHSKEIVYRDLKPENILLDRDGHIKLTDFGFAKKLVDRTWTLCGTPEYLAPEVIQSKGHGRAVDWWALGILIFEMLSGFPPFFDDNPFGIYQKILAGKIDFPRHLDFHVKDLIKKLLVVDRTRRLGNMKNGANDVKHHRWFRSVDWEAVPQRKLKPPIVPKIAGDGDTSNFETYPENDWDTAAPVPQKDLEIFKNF

C[C@@H]1CC[C@H]2C(C)(C)CCC[C@]2(C)c2c1oc1c(C=O)c(O)c(O)cc21 [LG-1, liphagal]
inhibition at 10 µM (MST 1): 24.3%
inhibition at 10 µM (KIT(V654A)): 22.3%
inhibition at 10 µM (MELK): 49.2%
inhibition at 10 µM (PKACβ): 13.9%
inhibition at 10 µM (ABL(T315I)): 6.1%
inhibition at 10 µM (RAF1_Cascade): 15.3%
inhibition at 10 µM (CHK2): 26.5%
inhibition at 10 µM (RET(G691S)): 14.8%
inhibition at 10 µM (SLK): 10.5%
inhibition at 10 µM (ABL): 0.4%
inhibition at 10 µM (MSK1): 5%
inhibition at 10 µM (FGFR1(V561M)): -12.6%
inhibition at 10 µM (MNK2): 5.9%
inhibition at 10 µM (Erk1): -4.4%
inhibition at 10 µM (FLT4): 2.1%
inhibition at 10 µM (MNK1): 5.3%
inhibition at 10 µM (PKD1): 4.2%
inhibition at 10 µM (AKT2): 6.2%
inhibition at 10 µM (PAK1): 0.5%
inhibition at 10 µM (SPHK2): 17.4%
inhibition at 10 µM (IGF1R): 8.7%
inhibition at 10 µM (BMX): 6.5%
inhibition at 10 µM (MET(D1228H)): 2.9%
inhibition at 10 µM (MET): -1.3%
inhibition at 10 µM (MET(M125DT)): -0.2%
inhibition at 10 µM (TYRO3): -6.6%
inhibition at 10 µM (WNK3): 19%
inhibition at 10 µM (LYNb): 2.8%
inhibition at 10 µM (CKIα): 20.5%
inhibition at 10 µM (BRK): 52.5%
inhibition at 10 µM (QIK): 2.7%
inhibition at 10 µM (PRKX): 20%
inhibition at 10 µM (TSSK3): 85.6%
inhibition at 10 µM (Nuak2): 1.5%
inhibition at 10 µM (CK2α1/β): -0.9%
inhibition at 10 µM (ITK): -6.5%
inhibition at 10 µM (PGK): 6.1%
inhibition at 10 µM (MUSK): -8.4%
inhibition at 10 µM (PYK2): 21.6%
inhibition at 10 µM (HPK1): 26.1%
inhibition at 10 µM (FAK): 24.5%
inhibition at 10 µM (CDK5/p25): 17.8%
